Data reported in US20260159486A1, “BENZO[H]QUINAZOLINE-4-AMINE DERIVATIVES FOR THE TREATMENT OF CANCER” (Redona Therapeutics, Inc., priority 2021, published 2026).

Tests used:
[1] = test system: phospho-SRSF6 in MDA-MB-468 cells; test: Inhibition of phospho-SRSF6 levels in MDA-MB-468 cells (Western blot); format: cell-based; conditions: Homo sapiens, 2 hours, compared to DMSO control; for inhibition at 0.01 µM: 10 nM, read-out: >50% p-SRSF6 reduction at 10 nM; for inhibition at 0.1 µM: 100 nM, read-out: >50% p-SRSF6 reduction at 100 nM
Description: FIG. 1: FIG. 1 provides a representative Western blot showing reduction of phosphorylated-SRSF6 (P—SRSF6) in MDA-MB 468 cells by compounds of the invention. GAPDH was probed for by Western blotting to control for equal protein loading and for normalization of samples. The numbers below the blots show percent inhibition of the P—SRSF6 signal at 100 nM (A) or 10 nM (B) compared to DMSO control.
Assessment of Inhibition of Phospho-SRSF6 Levels in MDA-MB-468 Cells
MDA-MB-468 cells (ATCC, HTB-132) were cultured in DMEM (BioConcept cat. no. 1-26F03) supplemented with 10% FBS (Sigma cat. no. F9665), […] (Sigma cat. no. S8636), 1% Penicillin-Streptomycin (BioConcept cat. no. 4-01FOO-H). When cells reached a density of 70% o in 6-well plates (TPP cat. no. 92006), they were treated either with the test compound vehicle DMSO, or with experimental compounds at a final concentration of either 10 or 100 nM for 2 hours. Thereafter, the culture medium was removed and cells were collected by scraping in Lysis Buffer (20 mM Tris HCl pH7.5, 150 mM NaCl, 1 mM EGTA, 1 mM EDTA, 1% o Triton and 1% o NP-40) containing protease and phosphatase inhibitors (Halt™ Protease&Phosphatase inhibitor cocktail 100× ThermioScientific cat. no. 1861281) and 1 mM PMSF (Fluka cat. no. 93482). Cleared lysates were stored in Eppendorfftubes at −80° C. until use, and protein concentration in lysates was determined using Pierce 660 nm Protein Assay Reagent (ThermioScientific cat. no. 22660). 20 μg proteins were diluted in 4× Laemmli buffer (Biorad cat. no. 161-0747) containing 10% beta-mercaptoethanol, separated by SDS-PAGE using 10% gels, and then transferred to PVDF membranes (Trans Blot Turbo Transfer Pack BioRad cat. no. 1704156) by Trans-Blot® Turbo™ System semidry blotting methodology (BioRad). Primary antibodies were incubated in TBS-0.1% Tween-20 buffer containing 3% BSA Bovine Albumin Fr.V (Millipore cat. no. 81-053-3) overnight at 4° C. The following primary antibodies were used: Mouse anti-phosphoepitope SR proteins clone 1H4 (Millipore cat. no. MABE50) diluted 1:5000, and rabbit anti-GAPDH clone 14C10 (Cell Signaling cat. no. 2118S) to control for equal protein loading, diluted 1:2000. HRP-conjugated secondary antibodies were incubated one hour at room temperature diluted 1:5000 in TBS-0.1% Tween-20 buffer containing […] nonfat-dried bovine milk (Sigma cat. no. M7409). The following secondary antibodies were used: Goat anti-mouse-HRP (Jackson cat. no. 115-035-146) and goat anti-rabbit-HRP (Jackson cat. no. 111-035-144). Membranes were incubated with ECL Prime Western Blot Detection Reagent (Amersham cat. no. RPN2236) to detect specific signals using Fusion SOLO S device (Vilber Lourmat). Pixel intensity of the phopsho-SRSF6 (MW 55 kDa in reference to markers) and GAPDH (MW 37 kDa) signals in the Western blots were determined using Evolution-Capt image analysis software (v17.01, Vilber Lourmat). DMSO control was used to set the phospho-SRSF6 signal at baseline, phospho-SRSF6 signals for each sample were normalized by the respective GAPDH signals and percent intensity of P—SRSF6 signal at 10 and 100 nM compound compared to DMSO control was calculated (see FIG. 1).

[2] = biological target: T1, recombinant human CLK3 (Homo sapiens, UniProt P49761); test: CLK3 kinase assay (LANCE Ultra); format: biochemical; conditions: CLK3 0.5 nM, ATP 300 μM, 3 hours at 30° C.
T1 construct: purchased Thermo Fisher Scientific PV3826
T1 sequence (P49761 whole entry): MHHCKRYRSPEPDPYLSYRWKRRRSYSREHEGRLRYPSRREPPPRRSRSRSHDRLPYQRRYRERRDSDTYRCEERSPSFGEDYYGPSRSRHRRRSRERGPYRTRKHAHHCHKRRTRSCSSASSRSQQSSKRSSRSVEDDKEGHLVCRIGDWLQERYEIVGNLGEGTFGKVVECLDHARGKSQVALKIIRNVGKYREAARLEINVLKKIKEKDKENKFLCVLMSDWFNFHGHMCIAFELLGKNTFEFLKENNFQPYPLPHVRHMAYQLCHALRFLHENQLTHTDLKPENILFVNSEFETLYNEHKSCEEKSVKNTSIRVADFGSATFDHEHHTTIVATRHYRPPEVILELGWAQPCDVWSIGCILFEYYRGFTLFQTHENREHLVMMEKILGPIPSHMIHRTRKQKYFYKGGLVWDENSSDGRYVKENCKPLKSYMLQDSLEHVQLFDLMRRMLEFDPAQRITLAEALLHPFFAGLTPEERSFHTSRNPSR
Summary of the method: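 Recombinant human CLK3 (0.5 nM) with ULight-CREBtide (50 nM) and 300 μM ATP, 3 h at 30 °C in kinase buffer; EDTA stop, then Eu-anti-phospho-CREB antibody (2 nM, 1 h RT), TR-FRET read at 665/620 nm. Inhibition normalized to DMSO and no-ATP wells; IC50 from 4-parameter fit, ten 1:3 concentrations in duplicate.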

[3] = test system: MDA-MB-231 cells; test: MDA-MB-231 proliferation assay; format: cell-based; conditions: YO-PRO-1 Iodide readout
Summary of the method: (§1)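 Cells seeded at 750 per well, treated next day for 72 h at 37 °C with 0.5% final DMSO. Cell number read by YO-PRO-1 fluorescence after lysis, normalized to DMSO (100%) and time-zero cells (0%). GI50 from 4-parameter logistic fit, maximum constrained to 100%.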

[4] = test system: CAL-51 cells; test: CAL-51 proliferation assay; format: cell-based; conditions: YO-PRO-1 Iodide readout
Summary of the method: as §1

Row | Compound | inhibition at 0.01 µM [1] | inhibition at 0.1 µM [1] | IC50 [2] | GI50 ([3]; Homo sapiens, MDA-MB-231, 72 h) | GI50 ([4]; Homo sapiens, CAL-51, 72 h) | GI50 ([3]; 72 hours) | GI50 ([4]; 72 hours)
1 | CN(C)c1c(O[C@H]2CC[C@H](N)CC2)ccc2c1CC(C)(C)c1c(N)ncnc1-2 [Example 20, 8-(trans-4-aminocyclohexoxy)-N7,N7,5,5-tetramethyl-6H-benzo[h]quinazoline-4,7-diamine] | > 50% | > 50% | < 30 nM | < 100 nM | < 100 nM |  | 
2 | CN(CC(C)(C)O)c1c(O[C@H]2CC[C@H](N)CC2)ccc2c1CC(C)(C)c1c(N)ncnc1-2 [Example 40, 1-[[4-amino-8-(trans-4-aminocyclohexoxy)-5,5-dimethyl-6H-benzo[h]quinazolin-7-yl]-methyl-amino]-2-methyl-propan-2-ol] | > 50% | > 50% | 30 to 100 nM | 100 to 2000 nM | < 100 nM |  | 
3 | CCNc1c(O[C@H]2CC[C@H](N)CC2)ccc2c1CC(C)(C)c1c(N)ncnc1-2 [Example 8, 8-(trans-4-aminocyclohexoxy)-N7-ethyl-5,5-dimethyl-6H-benzo[h]quinazoline-4,7-diamine] | < 50% | > 50% | 30 to 100 nM | 100 to 2000 nM | < 100 nM |  | 
4 | CC1(C)Cc2c(ccc(O[C@H]3CC[C@H](N)CC3)c2-n2cccc2)-c2ncnc(N)c21 [Example 17, 8-(trans-4-aminocyclohexoxy)-5,5-dimethyl-7-pyrrol-1-yl-6H-benzo[h]quinazolin-4-amine] | < 50% | > 50% | < 30 nM | < 100 nM | < 100 nM |  | 
5 | CC1(C)Cc2c(ccc(O[C@H]3CC[C@H](N)CC3)c2N2CCC(O)C2)-c2ncnc(N)c21 (single isomer, unassigned) [Example 16, 1-[4-amino-8-(trans-4-aminocyclohexoxy)-5,5-dimethyl-6H-benzo[h]quinazolin-7-yl]pyrrolidin-3-ol] | > 50% | > 50% | < 30 nM |  |  | < 100 nM | < 100 nM
6 | CC1(C)Cc2c(ccc(O[C@H]3CC[C@H](N)CC3)c2N2CCC(O)C2)-c2ncnc(N)c21 (single isomer, unassigned) [Example 15, 1-[4-amino-8-(trans-4-aminocyclohexoxy)-5,5-dimethyl-6H-benzo[h]quinazolin-7-yl]pyrrolidin-3-ol] |  |  | < 30 nM | 100 to 2000 nM | < 100 nM |  | 
7 | CC1(C)Cc2c(ccc(O[C@H]3CC[C@@H](N)CC3)c2NC[C@@H]2CNC(=O)O2)-c2ncnc(N)c21 [Example 128, (5R)-5-[[[4-amino-8-(cis-4-aminocyclohexoxy)-5,5-dimethyl-6H-benzo[h]quinazolin-7-yl]amino]methyl]oxazolidin-2-one] |  |  | < 30 nM | > 2000 nM | > 2000 nM |  | 
8 | CN(C[C@@H]1CNC(=O)O1)c1c(Br)ccc2c1CC(C)(C)c1c(N)ncnc1-2 [Example 126, (5S)-5-[[(4-amino-8-bromo-5,5-dimethyl-6H-benzo[h]quinazolin-7-yl)-methyl-amino]methyl]oxazolidin-2-one] |  |  | 30 to 100 nM | 100 to 2000 nM | 100 to 2000 nM |  | 
9 | CCN(CCO)c1c(O[C@H]2CC[C@@H](N)CC2)ccc2c1CC(C)(C)c1c(N)ncnc1-2 [Example 22, 2-[[4-amino-8-(4-cis-aminocyclohexoxy)-5,5-dimethyl-6H-benzo[h]quinazolin-7-yl]-ethyl-amino]ethanol] |  |  | < 30 nM | 100 to 2000 nM | < 100 nM |  | 
10 | CC1(C)Cc2c(ccc(O[C@H]3CC[C@H](N)CC3)c2NCC2(C#N)CC2)-c2ncnc(N)c21 [Example 76, 1-[[[4-amino-8-(trans-4-aminocyclohexoxy)-5,5-dimethyl-6H-benzo[h]quinazolin-7-yl]amino]methyl]cyclopropanecarbonitrile] |  |  | 101 to 1000 nM | 100 to 2000 nM | 100 to 2000 nM |  | 
11 | CN(Cc1cccnc1)c1c(O[C@H]2CC[C@H](N)CC2)ccc2c1CC(C)(C)c1c(N)ncnc1-2 [Example 107, 8-(trans-4-aminocyclohexoxy)-N7,5,5-trimethyl-N7-(3-pyridylmethyl)-6H-benzo[h]quinazoline-4,7-diamine] |  |  | 101 to 1000 nM | 100 to 2000 nM | 100 to 2000 nM |  | 
12 | COc1ccc2c(c1N(C)CCC#N)CC(C)(C)c1c(N)ncnc1-2 [Example 95, 3-[(4-amino-8-methoxy-5,5-dimethyl-6H-benzo[h]quinazolin-7-yl)-methyl-amino]propanenitrile] |  |  | < 30 nM | < 100 nM | < 100 nM |  | 
13 | CN(CC(C)(C)CO)c1c(O[C@H]2CC[C@H](N)CC2)ccc2c1CC(C)(C)c1c(N)ncnc1-2 [Example 110, 3-[[4-amino-8-(trans-4-aminocyclohexoxy)-5,5-dimethyl-6H-benzo[h]quinazolin-7-yl]-methyl-amino]-2,2-dimethyl-propan-1-ol] |  |  | < 30 nM | 100 to 2000 nM | < 100 nM |  | 
14 | COc1ccc2c(c1N1CCC(C#N)C1)CC(C)(C)c1c(N)ncnc1-2 (stereo not shown) [Example 55, 1-(4-amino-8-methoxy-5,5-dimethyl-6H-benzo[h]quinazolin-7-yl)pyrrolidine-3-carbonitrile] |  |  | 30 to 100 nM | < 100 nM | < 100 nM |  | 
15 | CN(CCC#N)c1c(OC2CCNCC2)ccc2c1CC(C)(C)c1c(N)ncnc1-2 [Example 93, 3-[[4-amino-5,5-dimethyl-8-(4-piperidyloxy)-6H-benzo[h]quinazolin-7-yl]-methyl-amino]propanenitrile] |  |  | < 30 nM | < 100 nM | < 100 nM |  | 
16 | COCCNc1c(O[C@H]2CC[C@H](N)CC2)ccc2c1CC1(CCCC1)c1c(N)ncnc1-2 [Example 62, 8-(trans-4-aminocyclohexoxy)-N7-(2-methoxyethyl)spiro[6H-benzo[h]quinazoline-5,1′-cyclopentane]-4,7-diamine] |  |  | 101 to 1000 nM | 100 to 2000 nM | 100 to 2000 nM |  | 
17 | CC1(C)Cc2c(ccc(O[C@H]3CC[C@H](N)CC3)c2CCCC#N)-c2ncnc(N)c21 [Example 81, 4-[4-amino-8-(trans-4-aminocyclohexoxy)-5,5-dimethyl-6H-benzo[h]quinazolin-7-yl]butanenitrile] |  |  | < 30 nM | 100 to 2000 nM | < 100 nM |  | 
18 | CCCOc1c(O[C@H]2CC[C@H](N)CC2)ccc2c1CC(C)(C)c1c(N)ncnc1-2 [Example 19, 8-(trans-4-aminocyclohexoxy)-5,5-dimethyl-7-propoxy-6H-benzo[h]quinazolin-4-amine] |  |  | 30 to 100 nM | 100 to 2000 nM | 100 to 2000 nM |  | 
